# According to patent US20260295053A1, “COMPOUNDS FOR DEGRADATION AND INHIBITION OF KRAS (G12D) PROTEIN” (Shenzhen Ionova Life Science Co., Ltd., priority 2023, published 2026):
# Columns and labels:
# [1] = system: AsPC-1 cells; test: AsPC-1 cell proliferation assay (CellTiter Glo); type: cell-based; settings: 6 days
# Procedure, shortened: (§1)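 Half-maximal degradation (DC50) and inhibition (IC50) concentrations are fitted from dose-response curves spanning […] to 1.5 nM final. KRAS G12D loss is measured by fluorescent antibody staining with β-actin reference after 24 h; growth is measured by ATP luminescence after a 6-day exposure.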
# [2] = target: T1, KRAS (G12D) (Homo sapiens, UniProt P01116, G12D); test: KRAS (G12D) cellular degradation assay in AsPC-1 cells; type: cell-based; settings: 24 hours, antibody fluorescence (Odyssey CLX), DC50 half-maximal degradation concentration
# T1 construct: in-cell western with KRAS G12D antibody after 24 h
# Procedure, shortened: as §1
# T1 sequence (P01116 1-188 isoform P01116-2 G12D): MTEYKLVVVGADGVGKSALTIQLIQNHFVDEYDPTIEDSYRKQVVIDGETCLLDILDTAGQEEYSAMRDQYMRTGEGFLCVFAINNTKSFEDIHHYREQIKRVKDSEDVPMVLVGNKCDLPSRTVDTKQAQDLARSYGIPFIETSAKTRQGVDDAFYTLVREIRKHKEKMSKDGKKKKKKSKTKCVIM
"IC50 ([1]; Homo sapiens, ASPC1, 144 h) [nM]",DC50 [2] [nM],IC50 [1] [nM],Structure (SMILES)
< 10,< 10,,"Cc1ncsc1-c1ccc([C@@H](NC(=O)[C@@H]2C[C@@H](O)CN2C(=O)[C@H](C(C)C)n2cc(-c3ccc(COc4c(-c5c(C)c(F)cc6[nH]ncc56)c(C5CC5)cc5c(N(C)[C@H]6CCNC6)nc(OC[C@H]6CCCO6)nc45)cc3)nn2)[C@H](C)O)cc1 [Example 208, (2S,4R)-1-((2S)-2-(4-(4-(((6-cyclopropyl-7-(6-fluoro-5-methyl-1H-indazol-4-yl)-4-(methyl((S)-pyrrolidin-3-yl)amino)-2-(((R)-tetrahydrofuran-2-yl)methoxy)quinazolin-8-yl)oxy)methyl)phenyl)-1H-1,2,3-triazol-1-yl)-3-methylbutanoyl)-4-hydroxy-N-((1R,2S)-2-hydroxy-1-(4-(4-methylthiazol-5-yl)phenyl)propyl)pyrrolidine-2-carboxamide]"
< 10,< 10,,"CCn1nccc1-c1ccc([C@@H](NC(=O)[C@@H]2C[C@@H](O)CN2C(=O)[C@H](C(C)C)n2cc(-c3ccc(COc4c(-c5c(C)c(F)cc6[nH]ncc56)c(C5CC5)cc5c(N6C[C@@H]7C[C@H]6CN7)nc(OC6CC7COCC7C6)nc45)cc3)nn2)[C@H](C)O)cc1 (stereo partly drawn) [Example 115, (2S,4R)-1-((2S)-2-(4-(4-(((4-((1S,4S)-2,5-diazabicyclo[2.2.1]heptan-2-yl)-6-cyclopropyl-7-(6-fluoro-5-methyl-1H-indazol-4-yl)-2-((hexahydro-1H-cyclopenta[c]furan-5-yl)oxy)quinazolin-8-yl)oxy)methyl)phenyl)-1H-1,2,3-triazol-1-yl)-3-methylbutanoyl)-N-((1R,2S)-1-(4-(1-ethyl-1H-pyrazol-5-yl)phenyl)-2-hydroxypropyl)-4-hydroxypyrrolidine-2-carboxamide]"
< 10,< 10,,"CO[C@@H](C)COc1nc(N2CCNCC[C@H]2C)c2cc(C3CC3)c(-c3c(C)c(F)cc4[nH]ncc34)c(OCc3ccc(-c4cn([C@H](C(=O)N5C[C@H](O)C[C@H]5C(=O)N[C@H](c5ccc(-c6scnc6C)cc5)[C@H](C)O)C(C)C)nn4)cc3)c2n1 [Example 190, (2S,4R)-1-((2S)-2-(4-(4-(((6-cyclopropyl-7-(6-fluoro-5-methyl-1H-indazol-4-yl)-2-((S)-2-methoxypropoxy)-4-((R)-7-methyl-1,4-diazepan-1-yl)quinazolin-8-yl)oxy)methyl)phenyl)-1H-1,2,3-triazol-1-yl)-3-methylbutanoyl)-4-hydroxy-N-((1R,2S)-2-hydroxy-1-(4-(4-methylthiazol-5-yl)phenyl)propyl)pyrrolidine-2-carboxamide]"
< 10,< 10,,"CNc1nc2ccc(C#C[C@H](CO)NC(=O)[C@@H]3C[C@@H](O)CN3C(=O)[C@H](C(C)C)n3cc(-c4ccc(COc5c(-c6c(C)c(F)cc7[nH]ncc67)c(C6CC6)cc6c(N7C[C@@H]8C[C@H]7CN8)nc(OC[C@H](C)OC)nc56)cc4)nn3)cc2s1 [Example 176, (2S,4R)-1-((2S)-2-(4-(4-(((4-((1S,4S)-2,5-diazabicyclo[2.2.1]heptan-2-yl)-6-cyclopropyl-7-(6-fluoro-5-methyl-1H-indazol-4-yl)-2-((S)-2-methoxypropoxy)quinazolin-8-yl)oxy)methyl)phenyl)-1H-1,2,3-triazol-1-yl)-3-methylbutanoyl)-4-hydroxy-N—((R)-1-hydroxy-4-(2-(methylamino)benzo[d]thiazol-6-yl)but-3-yn-2-yl)pyrrolidine-2-carboxamide]"
< 10,< 10,,"CCn1nccc1-c1ccc([C@@H](NC(=O)[C@@H]2C[C@@H](O)CN2C(=O)[C@H](C(C)C)n2cc(-c3ccc(COc4c(-c5c(C)c(F)c(F)c6[nH]ncc56)c(C5CC5)cc5c(N6C[C@@H]7C[C@H]6CN7)nc(OC[C@H](C)OC)nc45)cc3)nn2)[C@H](C)O)cc1 [Example 89, (2S,4R)-1-((2S)-2-(4-(4-(((4-((1S,4S)-2,5-diazabicyclo[2.2.1]heptan-2-yl)-6-cyclopropyl-7-(6,7-difluoro-5-methyl-1H-indazol-4-yl)-2-((S)-2-methoxypropoxy)quinazolin-8-yl)oxy)methyl)phenyl)-1H-1,2,3-triazol-1-yl)-3-methylbutanoyl)-N-((1R,2S)-1-(4-(1-ethyl-1H-pyrazol-5-yl)phenyl)-2-hydroxypropyl)-4-hydroxypyrrolidine-2-carboxamide]"

# Second part, the compound before the results:
Structure (SMILES),"IC50 ([1]; Homo sapiens, ASPC1, 144 h) [nM]",DC50 [2] [nM],IC50 [1] [nM]
"CCn1nccc1-c1ccc([C@@H](NC(=O)[C@@H]2C[C@@H](O)CN2C(=O)[C@H](C(C)C)n2cc(-c3ccc(COc4c(-c5c(C)c(F)cc6[nH]ncc56)c(C5CC5)cc5c(N(C)[C@H]6CCNC6)nc(O[C@H]6C[C@H](OC)C6)nc45)cc3)nn2)[C@H](C)O)cc1 [Example 170, (2S,4R)-1-((2S)-2-(4-(4-(((6-cyclopropyl-7-(6-fluoro-5-methyl-1H-indazol-4-yl)-2-((1r,3S)-3-methoxycyclobutoxy)-4-(methyl((S)-pyrrolidin-3-yl)amino)quinazolin-8-yl)oxy)methyl)phenyl)-1H-1,2,3-triazol-1-yl)-3-methylbutanoyl)-N-((1R,2S)-1-(4-(1-ethyl-1H-pyrazol-5-yl)phenyl)-2-hydroxypropyl)-4-hydroxypyrrolidine-2-carboxamide]",< 10,< 10,
"CCn1nccc1-c1ccc([C@H](CO)NC(=O)[C@@H]2C[C@@H](O)CN2C(=O)[C@H](C(C)C)n2cc(-c3ccc(COc4c(-c5c(C)c(F)cc6[nH]ncc56)c(C5CC5)cc5c(N6C[C@@H]7C[C@H]6CN7)nc(OCC(F)(F)COC)nc45)cc3)nn2)cc1 [Example 47, (2S,4R)-1-((2S)-2-(4-(4-(((4-((1S,4S)-2,5-diazabicyclo[2.2.1]heptan-2-yl)-6-cyclopropyl-2-(2,2-difluoro-3-methoxypropoxy)-7-(6-fluoro-5-methyl-1H-indazol-4-yl)quinazolin-8-yl)oxy)methyl)phenyl)-1H-1,2,3-triazol-1-yl)-3-methylbutanoyl)-N—((R)-1-(4-(1-ethyl-1H-pyrazol-5-yl)phenyl)-2-hydroxyethyl)-4-hydroxypyrrolidine-2-carboxamide]",< 10,< 10,
"CCn1nccc1-c1ccc([C@H](CO)NC(=O)[C@@H]2C[C@@H](O)CN2C(=O)[C@H](C(C)C)n2cc(-c3ccc(COc4c(-c5c(C)c(F)cc6[nH]ncc56)c(C5CC5)cc5c(N6C[C@@H]7C[C@H]6CN7)nc(OC(COC)C(F)(F)F)nc45)cc3)nn2)cc1 (stereo partly drawn) [Example 58, (2S,4R)-1-((2S)-2-(4-(4-(((4-((1S,4S)-2,5-diazabicyclo[2.2.1]heptan-2-yl)-6-cyclopropyl-7-(6-fluoro-5-methyl-1H-indazol-4-yl)-2-((1,1,1-trifluoro-3-methoxypropan-2-yl)oxy)quinazolin-8-yl)oxy)methyl)phenyl)-1H-1,2,3-triazol-1-yl)-3-methylbutanoyl)-N—((R)-1-(4-(1-ethyl-1H-pyrazol-5-yl)phenyl)-2-hydroxyethyl)-4-hydroxypyrrolidine-2-carboxamide]",< 10,< 10,
"CO[C@@H](C)COc1nc(N2C[C@@H]3C[C@H]2CN3)c2cc(C3CC3)c(-c3c(C)c(F)cc4[nH]ncc34)c(OCc3ccc(-c4cn([C@H](C(=O)N5C[C@H](O)C[C@H]5C(=O)N[C@H](C#Cc5cccc(F)c5F)CO)C(C)C)nn4)cc3)c2n1 [Example 60, (2S,4R)-1-((2S)-2-(4-(4-(((4-((1S,4S)-2,5-diazabicyclo[2.2.1]heptan-2-yl)-6-cyclopropyl-7-(6-fluoro-5-methyl-1H-indazol-4-yl)-2-((S)-2-methoxypropoxy)quinazolin-8-yl)oxy)methyl)phenyl)-1H-1,2,3-triazol-1-yl)-3-methylbutanoyl)-N—((R)-4-(2,3-difluorophenyl)-1-hydroxybut-3-yn-2-yl)-4-hydroxypyrrolidine-2-carboxamide]",< 10,< 10,
"CO[C@@H](C)COc1nc(N2C[C@@H]3C[C@H]2CN3)c2cc(C3CC3)c(-c3c(C)c(F)cc4[nH]ncc34)c(OCc3ccc(-c4cn([C@H](C(=O)N5C[C@H](O)C[C@H]5C(=O)N[C@H](C#Cc5ccccc5Cl)CO)C(C)C)nn4)cc3)c2n1 [Example 64, (2S,4R)-1-((2S)-2-(4-(4-(((4-((1S,4S)-2,5-diazabicyclo[2.2.1]heptan-2-yl)-6-cyclopropyl-7-(6-fluoro-5-methyl-1H-indazol-4-yl)-2-((S)-2-methoxypropoxy)quinazolin-8-yl)oxy)methyl)phenyl)-1H-1,2,3-triazol-1-yl)-3-methylbutanoyl)-N—((R)-4-(2-chlorophenyl)-1-hydroxybut-3-yn-2-yl)-4-hydroxypyrrolidine-2-carboxamide]",10 to 100,10 to 100,
"CO[C@H]1C[C@H](Oc2nc(N3CCCNCC3)c3cc(C4CC4)c(-c4c(C)c(F)cc5[nH]ncc45)c(OCc4ccc(-c5cn([C@H](C(=O)N6C[C@H](O)C[C@H]6C(=O)N[C@@H](CO)c6ccc(-c7scnc7C)cc6)C(C)C)nn5)cc4)c3n2)C1 [Example 199, (2S,4R)-1-((2S)-2-(4-(4-(((6-cyclopropyl-4-(1,4-diazepan-1-yl)-7-(6-fluoro-5-methyl-1H-indazol-4-yl)-2-((1r,3r)-3-methoxycyclobutoxy)quinazolin-8-yl)oxy)methyl)phenyl)-1H-1,2,3-triazol-1-yl)-3-methylbutanoyl)-4-hydroxy-N—((R)-2-hydroxy-1-(4-(4-methylthiazol-5-yl)phenyl)ethyl)pyrrolidine-2-carboxamide]",< 10,< 10,
"CO[C@@H](C)COc1nc(N2C[C@H]3C[C@@H]2CN3)c2cc(C3CC3)c(-c3c(C)c(F)cc4[nH]ncc34)c(OCc3ccc(-c4cn([C@H](C(=O)N5C[C@H](O)C[C@H]5C(=O)N[C@@H](CO)c5ccc(-c6scnc6C)cc5)C(C)C)nn4)cc3)c2n1 (single isomer, unassigned) [Example 2B]",,> 1000,> 1000
